Activity data for 8 compounds are collected here from ChEMBL document CHEMBL1157398, “Ymf 1029A-E, preussomerin analogues from the fresh-water-derived fungus YMF 1.01029” (2008).

What all share (type): functional
For assay [1], the system named is Bursaphelenchus xylophilus. As to the kind of experiment: Nematicidal activity against Bursaphelenchus xylophilus at 100 ug/ml after 24 hrs.
Assay [2] concerns Bursaphelenchus xylophilus. Put plainly: Nematicidal activity against Bursaphelenchus xylophilus at 200 ug/ml after 48 hrs.
For assay [3], the system named is Bursaphelenchus xylophilus. As to the kind of experiment: Nematicidal activity against Bursaphelenchus xylophilus at 200 ug/ml after 24 hrs.
The test system of assay [4] is Bursaphelenchus xylophilus. Put plainly: Nematicidal activity against Bursaphelenchus xylophilus at 100 ug/ml after 48 hrs.

The structures appear in SMILES notation.

As to `O=C1CCC(O)c2cccc(O)c21` (racemic) [4,8-DIHYDROXY-1-TETRALONE], the Activity in assay [1] was 34.7%; in assay [2], 58.3%; in assay [3], 53.4%; in assay [4], 43.8%.

In the case of `O=C1CC[C@]23Oc4ccc(O)c5c4[C@](Oc4cccc1c42)(O3)[C@@H]1O[C@@H]1[C@@H]5O`, the Activity in assay [1] came to 33.7%; in assay [2], 60.7%; in assay [3] it was 47.9%; in assay [4], 44.1%.

For the compound `O=C1C=C[C@]23Oc4ccc(O)c5c4[C@](Oc4cccc1c42)(O3)[C@@H]1O[C@@H]1[C@@H]5O` [PREUSSOMERIN D], the Activity in assay [1] came out at 53.8%; in assay [2] it was 83.7%; in assay [3] it was 60.4%; in assay [4] it was 76.5%.

Consider `O=C1C[C@@H](O)[C@]23Oc4ccc(O)c5c4[C@](Oc4cccc1c42)(O3)[C@@H]1O[C@@H]1[C@@H]5O`, for which the Activity was determined as 45.2% in assay [1], 70.3% in assay [2], 56.7% in assay [3] and 66.4% in assay [4].

As to `O=C1c2c(O)ccc3c2[C@@]2(Oc4cccc5c4[C@](O3)(O2)[C@H](O)C[C@@H]5O)[C@@H]2O[C@H]12`, the Activity in assay [1] was 27.8%; in assay [2], 64.2%; in assay [3] it was 52.3%; in assay [4], 39.6%.

Take `Oc1ccc2c3c1[C@@H](O)[C@H]1O[C@H]1[C@]31Oc3cccc4c3[C@](O2)(O1)[C@H](O)C[C@@H]4O`: the Activity in assay [1] is recorded as 25.6%; in assay [2], 62.3%; in assay [3], 54.8%; in assay [4] it was 35.5%.

`O=C1CC[C@H](O)c2cc(O)cc(O)c21`: the Activity worked out at 23.7% in assay [1], 57.3% in assay [2], 51.2% in assay [3] and 46.7% in assay [4].

In the case of `CO[C@@H]1CC(=O)c2cccc3c2[C@@]12Oc1ccc(O)c4c1[C@](O3)(O2)[C@@H]1O[C@@H]1[C@@H]4O` [PREUSSOMERIN C], the Activity in assay [1] is 50.2%; in assay [2] it was 78.6%; in assay [3], 59.3%; in assay [4] it was 67.4%.
